# Legend:
# [1] = system: K-562; test: NCI-60 anticancer screening (SRB); format: cell-based; settings: Homo sapiens, K562; for inhibition at 10 µM: K-562, leukemia, one dose 10 μM, read-out: Growth Inhibition Percentage (GI %)
# [2] = system: DU-145; test: NCI-60 anticancer screening (SRB); format: cell-based; settings: Homo sapiens; for inhibition at 10 µM: DU-145, prostate cancer, one dose 10 μM, read-out: Growth Inhibition Percentage (GI %)
# [3] = system: M14; test: NCI-60 anticancer screening (SRB); format: cell-based; settings: Homo sapiens; for inhibition at 10 µM: M14, melanoma, one dose 10 μM, read-out: Growth Inhibition Percentage (GI %)
# [4] = target: EGFR^T790M (Homo sapiens, UniProt P00533, T790M); test: biochemical
# [5] = system: SF-268; test: NCI-60 anticancer screening (SRB); format: cell-based; settings: Homo sapiens; for inhibition at 10 µM: SF-268, CNS cancer, one dose 10 μM, read-out: Growth Inhibition Percentage (GI %)
# [6] = system: OVCAR-8; test: NCI-60 anticancer screening (SRB); format: cell-based; settings: Homo sapiens; for inhibition at 10 µM: OVCAR-8, ovarian cancer, one dose 10 μM, read-out: Growth Inhibition Percentage (GI %)
# [7] = system: MDA-MB-435; test: NCI-60 anticancer screening (SRB); format: cell-based; settings: Homo sapiens; for inhibition at 10 µM: MDA-MB-435, melanoma, one dose 10 μM, read-out: Growth Inhibition Percentage (GI %)
# [8] = system: HCT-15; test: NCI-60 anticancer screening (SRB); format: cell-based; settings: Homo sapiens; for inhibition at 10 µM: HCT-15, colon cancer, one dose 10 μM, read-out: Growth Inhibition Percentage (GI %)
# [9] = system: HCT-116; test: NCI-60 anticancer screening (SRB); format: cell-based; settings: Homo sapiens; for inhibition at 10 µM: HCT-116, colon cancer, one dose 10 μM, read-out: Growth Inhibition Percentage (GI %)
# [10] = system: RXF 393; test: NCI-60 anticancer screening (SRB); format: cell-based; settings: Homo sapiens; for inhibition at 10 µM: RXF 393, renal cancer, one dose 10 μM, read-out: Growth Inhibition Percentage (GI %)
# [11] = system: SF-295; test: NCI-60 anticancer screening (SRB); format: cell-based; settings: Homo sapiens; for inhibition at 10 µM: SF-295, CNS cancer, one dose 10 μM, read-out: Growth Inhibition Percentage (GI %)
# [12] = system: HS 578T; test: NCI-60 anticancer screening (SRB); format: cell-based; settings: Homo sapiens; for inhibition at 10 µM: HS 578T, breast cancer, one dose 10 μM, read-out: Growth Inhibition Percentage (GI %)
# [13] = system: PC-3; test: NCI-60 anticancer screening (SRB); format: cell-based; settings: Homo sapiens; for inhibition at 10 µM: PC-3, prostate cancer, one dose 10 μM, read-out: Growth Inhibition Percentage (GI %)
# [14] = system: UACC-62; test: NCI-60 anticancer screening (SRB); format: cell-based; settings: Homo sapiens; for inhibition at 10 µM: UACC-62, melanoma, one dose 10 μM, read-out: Growth Inhibition Percentage (GI %)
# [15] = system: HOP-62; test: NCI-60 anticancer screening (SRB); format: cell-based; settings: Homo sapiens; for inhibition at 10 µM: HOP-62, NSC lung cancer, one dose 10 μM, read-out: Growth Inhibition Percentage (GI %)
# [16] = system: UACC-257; test: NCI-60 anticancer screening (SRB); format: cell-based; settings: Homo sapiens; for inhibition at 10 µM: UACC-257, melanoma, one dose 10 μM, read-out: Growth Inhibition Percentage (GI %)
# [17] = system: SF-539; test: NCI-60 anticancer screening (SRB); format: cell-based; settings: Homo sapiens; for inhibition at 10 µM: SF-539, CNS cancer, one dose 10 μM, read-out: Growth Inhibition Percentage (GI %)
# [18] = system: IGROV1; test: NCI-60 anticancer screening (SRB); format: cell-based; settings: Homo sapiens, IGROV-1; for inhibition at 10 µM: IGROV1, ovarian cancer, one dose 10 μM, read-out: Growth Inhibition Percentage (GI %)
# [19] = system: NCI 60 cancer cell lines; test: NCI-60 anticancer screening (SRB), whole panel; format: cell-based, human; settings: for GI % mean: mean across the NCI-60 panel, one dose 10 μM
# [20] = system: NCI/ADR-RES; test: NCI-60 anticancer screening (SRB); format: cell-based; settings: Homo sapiens, ovarian cancer, one dose 10 μM, read-out: Growth Inhibition Percentage (GI %)
# [21] = system: UO-31; test: NCI-60 anticancer screening (SRB); format: cell-based; settings: Homo sapiens; for inhibition at 10 µM: UO-31, renal cancer, one dose 10 μM, read-out: Growth Inhibition Percentage (GI %)
# [22] = system: MCF7; test: NCI-60 anticancer screening (SRB); format: cell-based; settings: Homo sapiens; for inhibition at 10 µM: MCF7, breast cancer, one dose 10 μM, read-out: Growth Inhibition Percentage (GI %)
# [23] = system: COLO 205; test: NCI-60 anticancer screening (SRB); format: cell-based; settings: Homo sapiens; for inhibition at 10 µM: COLO 205, colon cancer, one dose 10 μM, read-out: Growth Inhibition Percentage (GI %)
# [24] = system: NCI-H522; test: NCI-60 anticancer screening (SRB); format: cell-based; settings: Homo sapiens; for inhibition at 10 µM: NCI-H522, NSC lung cancer, one dose 10 μM, read-out: Growth Inhibition Percentage (GI %)
# [25] = system: NCI-H460; test: NCI-60 anticancer screening (SRB); format: cell-based; settings: Homo sapiens; for inhibition at 10 µM: NCI-H460, NSC lung cancer, one dose 10 μM, read-out: Growth Inhibition Percentage (GI %)
# [26] = system: MOLT-4; test: NCI-60 anticancer screening (SRB); format: cell-based; settings: Homo sapiens; for inhibition at 10 µM: MOLT-4, leukemia, one dose 10 μM, read-out: Growth Inhibition Percentage (GI %)
# [27] = target: EGFR^L858R (Homo sapiens, UniProt P00533, L858R); test: biochemical
# [28] = system: HL-60(TB); test: NCI-60 anticancer screening (SRB); format: cell-based; settings: Homo sapiens; for inhibition at 10 µM: leukemia, one dose 10 μM, read-out: Growth Inhibition Percentage (GI %)
# [29] = system: HT29; test: NCI-60 anticancer screening (SRB); format: cell-based; settings: Homo sapiens, HT-29; for inhibition at 10 µM: HT29, colon cancer, one dose 10 μM, read-out: Growth Inhibition Percentage (GI %)
# [30] = target: EGFR^WT (Homo sapiens, UniProt P00533); test: EGFR kinase inhibitory assay (HTRF)
# EGFR^WT, sequence (P00533 25-1210): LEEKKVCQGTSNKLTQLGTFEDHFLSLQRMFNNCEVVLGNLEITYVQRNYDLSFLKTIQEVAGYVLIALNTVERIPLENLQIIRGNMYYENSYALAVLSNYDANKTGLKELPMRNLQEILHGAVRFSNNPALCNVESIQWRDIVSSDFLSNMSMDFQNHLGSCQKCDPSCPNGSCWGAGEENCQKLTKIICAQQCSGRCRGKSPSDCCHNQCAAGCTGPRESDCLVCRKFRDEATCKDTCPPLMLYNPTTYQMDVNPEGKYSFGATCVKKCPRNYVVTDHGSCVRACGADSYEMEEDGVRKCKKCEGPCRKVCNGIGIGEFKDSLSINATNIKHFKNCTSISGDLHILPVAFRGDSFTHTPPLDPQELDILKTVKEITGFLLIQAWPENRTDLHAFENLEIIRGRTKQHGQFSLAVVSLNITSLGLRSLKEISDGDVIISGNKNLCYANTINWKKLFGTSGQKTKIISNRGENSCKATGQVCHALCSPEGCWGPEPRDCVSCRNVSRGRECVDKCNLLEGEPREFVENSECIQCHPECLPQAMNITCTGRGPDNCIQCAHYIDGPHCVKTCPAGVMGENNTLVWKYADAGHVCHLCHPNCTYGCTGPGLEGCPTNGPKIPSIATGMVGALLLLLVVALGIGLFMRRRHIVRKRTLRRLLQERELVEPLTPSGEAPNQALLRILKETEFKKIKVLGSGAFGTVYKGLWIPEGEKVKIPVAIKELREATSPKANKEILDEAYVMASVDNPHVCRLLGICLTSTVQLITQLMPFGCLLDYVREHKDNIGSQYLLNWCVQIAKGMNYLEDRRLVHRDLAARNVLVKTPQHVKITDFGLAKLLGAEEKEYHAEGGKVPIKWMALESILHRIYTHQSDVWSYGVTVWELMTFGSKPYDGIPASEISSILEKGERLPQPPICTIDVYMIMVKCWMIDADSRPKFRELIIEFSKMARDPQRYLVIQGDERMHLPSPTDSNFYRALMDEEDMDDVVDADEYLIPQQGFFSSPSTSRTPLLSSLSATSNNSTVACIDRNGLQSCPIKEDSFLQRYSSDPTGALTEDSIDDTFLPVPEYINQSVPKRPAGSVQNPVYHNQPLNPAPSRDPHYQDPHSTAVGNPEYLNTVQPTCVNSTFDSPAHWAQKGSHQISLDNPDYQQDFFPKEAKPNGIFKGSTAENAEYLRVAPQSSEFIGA
# EGFR^T790M, sequence (P00533 25-1210 T790M): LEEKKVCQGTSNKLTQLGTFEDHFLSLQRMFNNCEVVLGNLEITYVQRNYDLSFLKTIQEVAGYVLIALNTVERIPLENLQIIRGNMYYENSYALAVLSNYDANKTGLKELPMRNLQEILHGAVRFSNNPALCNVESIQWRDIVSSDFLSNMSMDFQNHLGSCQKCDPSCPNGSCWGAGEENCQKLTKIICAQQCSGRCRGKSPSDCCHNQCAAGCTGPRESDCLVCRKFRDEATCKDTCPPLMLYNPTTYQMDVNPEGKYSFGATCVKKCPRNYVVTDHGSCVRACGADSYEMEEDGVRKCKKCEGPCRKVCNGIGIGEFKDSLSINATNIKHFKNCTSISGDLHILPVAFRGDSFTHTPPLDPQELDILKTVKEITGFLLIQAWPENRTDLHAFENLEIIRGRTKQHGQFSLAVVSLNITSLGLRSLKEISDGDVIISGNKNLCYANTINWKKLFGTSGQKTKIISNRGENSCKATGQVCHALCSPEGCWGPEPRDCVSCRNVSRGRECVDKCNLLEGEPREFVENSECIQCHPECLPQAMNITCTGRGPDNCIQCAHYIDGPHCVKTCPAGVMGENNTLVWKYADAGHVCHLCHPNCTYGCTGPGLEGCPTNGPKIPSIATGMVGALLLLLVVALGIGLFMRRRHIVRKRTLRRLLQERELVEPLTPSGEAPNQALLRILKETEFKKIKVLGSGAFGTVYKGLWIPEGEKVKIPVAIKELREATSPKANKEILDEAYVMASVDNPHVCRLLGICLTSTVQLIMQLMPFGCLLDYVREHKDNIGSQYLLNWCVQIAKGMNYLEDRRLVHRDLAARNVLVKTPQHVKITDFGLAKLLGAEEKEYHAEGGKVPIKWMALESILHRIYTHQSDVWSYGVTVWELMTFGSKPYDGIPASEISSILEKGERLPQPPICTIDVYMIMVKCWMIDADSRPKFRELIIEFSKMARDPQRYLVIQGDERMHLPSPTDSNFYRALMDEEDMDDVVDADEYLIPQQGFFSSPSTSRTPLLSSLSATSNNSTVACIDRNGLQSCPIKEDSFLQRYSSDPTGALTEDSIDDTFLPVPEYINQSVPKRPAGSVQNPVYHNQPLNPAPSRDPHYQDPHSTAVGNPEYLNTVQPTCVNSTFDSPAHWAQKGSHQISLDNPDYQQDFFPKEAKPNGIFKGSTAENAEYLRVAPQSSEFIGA
# EGFR^L858R, sequence (P00533 25-1210 L858R): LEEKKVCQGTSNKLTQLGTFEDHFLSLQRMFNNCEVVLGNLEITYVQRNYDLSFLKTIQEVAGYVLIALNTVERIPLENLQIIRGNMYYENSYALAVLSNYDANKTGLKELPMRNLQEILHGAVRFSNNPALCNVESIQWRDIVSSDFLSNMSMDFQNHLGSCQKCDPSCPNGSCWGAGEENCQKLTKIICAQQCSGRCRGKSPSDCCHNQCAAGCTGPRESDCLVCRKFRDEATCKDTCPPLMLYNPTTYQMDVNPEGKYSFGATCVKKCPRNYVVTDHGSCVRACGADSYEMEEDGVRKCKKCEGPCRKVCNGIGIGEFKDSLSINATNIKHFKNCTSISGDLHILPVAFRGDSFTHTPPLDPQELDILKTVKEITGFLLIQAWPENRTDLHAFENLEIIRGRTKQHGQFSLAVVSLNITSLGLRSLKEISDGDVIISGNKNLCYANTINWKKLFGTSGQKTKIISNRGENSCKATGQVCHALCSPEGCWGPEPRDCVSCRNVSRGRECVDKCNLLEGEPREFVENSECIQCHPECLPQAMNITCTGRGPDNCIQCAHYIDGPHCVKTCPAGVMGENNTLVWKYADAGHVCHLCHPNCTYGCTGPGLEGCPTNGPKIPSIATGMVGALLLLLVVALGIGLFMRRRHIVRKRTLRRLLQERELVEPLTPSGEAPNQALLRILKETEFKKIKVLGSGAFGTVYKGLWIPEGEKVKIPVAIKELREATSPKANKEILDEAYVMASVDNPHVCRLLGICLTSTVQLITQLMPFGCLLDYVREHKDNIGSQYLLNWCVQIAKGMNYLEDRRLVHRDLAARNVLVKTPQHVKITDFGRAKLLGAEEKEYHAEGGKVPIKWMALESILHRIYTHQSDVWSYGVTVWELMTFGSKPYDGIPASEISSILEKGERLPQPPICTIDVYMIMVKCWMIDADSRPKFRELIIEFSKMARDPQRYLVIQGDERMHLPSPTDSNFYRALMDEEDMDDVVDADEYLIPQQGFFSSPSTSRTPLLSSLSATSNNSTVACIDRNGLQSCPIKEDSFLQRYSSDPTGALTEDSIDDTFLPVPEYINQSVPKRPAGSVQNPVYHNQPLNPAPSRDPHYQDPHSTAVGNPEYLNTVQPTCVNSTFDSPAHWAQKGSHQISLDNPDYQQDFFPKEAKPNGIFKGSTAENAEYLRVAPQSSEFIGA
smiles,measurement,setting,value
"CCOC(=O)C1=C(N)N(c2ccccc2)C2=C(C(=O)CC(C)(C)C2)C1c1ccccc1Br (racemic) [6d, (±)-Ethyl 2-amino-4–(2-bromophenyl)-7,7-dimethyl-5-oxo-1-phenyl-1,4,5,6,7,8-hexahydroquinoline-3-carboxylate]",inhibition at 10 µM,[1],20%
same,inhibition at 10 µM,[2],< 10%
same,inhibition at 10 µM,[3],13%
same,IC50,[4],0.41 ± 0.002 µM
same,inhibition at 10 µM,[5],< 10%
same,inhibition at 10 µM,[6],< 10%
same,inhibition at 10 µM,[7],< 10%
same,inhibition at 10 µM,[8],17%
same,inhibition at 10 µM,[9],21%
same,inhibition at 10 µM,[10],< 10%
same,inhibition at 10 µM,[11],< 10%
same,inhibition at 10 µM,[12],< 10%
same,inhibition at 10 µM,[13],33%
same,inhibition at 10 µM,[14],36%
same,inhibition at 10 µM,[15],< 10%
same,inhibition at 10 µM,[16],< 10%
same,melting point,,220 to 222 °C
same,inhibition at 10 µM,[17],< 10%
same,inhibition at 10 µM,[18],< 10%
same,GI % mean,[19],12%
same,inhibition at 10 µM,[20],< 10%
same,inhibition at 10 µM,[21],14%
same,inhibition at 10 µM,[22],33%
same,inhibition at 10 µM,[23],< 10%
same,inhibition at 10 µM,[24],23%
same,inhibition at 10 µM,[25],20%
same,inhibition at 10 µM,[26],25%
same,IC50,[27],0.25 ± 0.005 µM
same,inhibition at 10 µM,[28],34%
same,inhibition at 10 µM,[29],17%
same,IC50,[30],0.099 ± 0.02 µM
"CCOC(=O)C1=C(N)N(c2ccccc2)C2=C(C(=O)CC(C)(C)C2)C1c1ccc(Cl)cc1Cl (racemic) [10c, (±)-Ethyl 2-amino-4–(2,4-dichlorophenyl)-7,7-dimethyl-5-oxo-1-phenyl-1,4,5,6,7,8-hexahydroquinoline-3-carboxylate]",inhibition at 10 µM,[1],87%
same,GI50,"[1]; K-562, five doses 0.01-100 µM, 48 h",7.23 µM
same,inhibition at 10 µM,[2],54%
same,GI50,"[2]; DU-145, five doses 0.01-100 µM, 48 h",6.71 µM
same,inhibition at 10 µM,[3],59%
same,GI50,"[3]; M14, five doses 0.01-100 µM, 48 h",3.48 µM
same,IC50,[4],0.586 ± 0.003 µM
same,inhibition at 10 µM,[5],48%
same,GI50,"[5]; SF-268, five doses 0.01-100 µM, 48 h",5.32 µM
same,inhibition at 10 µM,[6],63%
same,GI50,"[6]; OVCAR-8, five doses 0.01-100 µM, 48 h",3.72 µM
same,inhibition at 10 µM,[7],71%
same,GI50,"[7]; MDA-MB-435, five doses 0.01-100 µM, 48 h",3.21 µM
same,inhibition at 10 µM,[8],86%
same,GI50,"[8]; HCT-15, five doses 0.01-100 µM, 48 h",1.52 µM
same,inhibition at 10 µM,[9],86%
same,GI50,"[9]; HCT-116, five doses 0.01-100 µM, 48 h",7.89 µM
same,inhibition at 10 µM,[10],79%
same,GI50,"[10]; RXF 393, five doses 0.01-100 µM, 48 h",1.38 µM
same,inhibition at 10 µM,[11],76%
same,GI50,"[11]; SF-295, five doses 0.01-100 µM, 48 h",2.03 µM
same,inhibition at 10 µM,[12],< 10%
same,GI50,"[12]; HS 578 T, five doses 0.01-100 µM, 48 h",7.68 µM
same,inhibition at 10 µM,[13],90%
same,GI50,"[13]; PC-3, five doses 0.01-100 µM, 48 h",4.14 µM
same,inhibition at 10 µM,[14],73%
same,GI50,"[14]; UACC-62, five doses 0.01-100 µM, 48 h",1.26 µM
same,inhibition at 10 µM,[15],49%
same,GI50,"[15]; HOP-62, five doses 0.01-100 µM, 48 h",4.88 µM
same,inhibition at 10 µM,[16],65%
same,GI50,"[16]; UACC-257, five doses 0.01-100 µM, 48 h",2.88 µM
same,inhibition at 10 µM,[17],67%
same,GI50,"[17]; SF-539, five doses 0.01-100 µM, 48 h",3.78 µM
same,inhibition at 10 µM,[18],41%
same,GI50,"[18]; IGROV1, five doses 0.01-100 µM, 48 h",7.97 µM
same,LC50 (50% lethal concentration),"[19]; Homo sapiens, 60 cell, five doses, read-out: LC50 values towards 60 cell lines",> 100 µM
same,GI50,"[19]; Homo sapiens, five doses 0.01-100 µM, 48 h, read-out: GI50 range against nearly all the tested cell lines",1.04 to 9.56 µM
same,GI % mean,[19],74%
same,inhibition at 10 µM,[20],76%
same,inhibition at 10 µM,[21],83%
same,GI50,"[21]; UO-31, five doses 0.01-100 µM, 48 h",1.15 µM
same,inhibition at 10 µM,[22],91%
same,GI50,"[22]; MCF7, five doses 0.01-100 µM, 48 h",1.77 µM
same,inhibition at 10 µM,[23],91%
same,GI50,"[23]; COLO-205, five doses 0.01-100 µM, 48 h",2.06 µM
same,inhibition at 10 µM,[24],65%
same,GI50,"[24]; NCI-H522, five doses 0.01-100 µM, 48 h",2.22 µM
same,inhibition at 10 µM,[25],82%
same,GI50,"[25]; NCI-H460, five doses 0.01-100 µM, 48 h",1.39 µM
same,inhibition at 10 µM,[26],93%
same,GI50,"[26]; MOLT-4, five doses 0.01-100 µM, 48 h",9.56 µM
same,IC50,[27],0.623 ± 0.005 µM
same,GI50,"[28]; five doses 0.01-100 µM, 48 h",5.95 µM
same,inhibition at 10 µM,[28],99%
same,inhibition at 10 µM,[29],65%
same,GI50,"[29]; five doses 0.01-100 µM, 48 h",1.98 µM
same,IC50,[30],0.148 ± 0.04 µM
"CCOC(=O)C1=C(N)N(c2ccc(Cl)cc2)C2=C(C(=O)CC(C)(C)C2)C1c1ccc(Cl)cc1Cl (racemic) [10d, (±)-Ethyl 2-amino-1–(4-chorophenyl)-4–(2,4-dichlorophenyl)-7,7-dimethyl-5-oxo-1-phenyl-1,4,5,6,7,8-hexahydroquinoline-3-carboxylate]",inhibition at 10 µM,[1],79%
same,inhibition at 10 µM,[2],23%
same,inhibition at 10 µM,[3],30%
same,IC50,[4],0.28 ± 0.001 µM
same,inhibition at 10 µM,[5],27%
same,inhibition at 10 µM,[6],29%
same,inhibition at 10 µM,[7],42%
same,inhibition at 10 µM,[8],65%
same,inhibition at 10 µM,[9],66%
same,inhibition at 10 µM,[10],38%
same,inhibition at 10 µM,[11],48%
same,inhibition at 10 µM,[12],< 10%
same,inhibition at 10 µM,[13],79%
same,inhibition at 10 µM,[14],45%
same,inhibition at 10 µM,[15],46%
same,inhibition at 10 µM,[16],43%
same,inhibition at 10 µM,[17],21%
same,inhibition at 10 µM,[18],16%
same,GI % mean,[19],48%
same,inhibition at 10 µM,[20],47%
same,inhibition at 10 µM,[21],65%
same,inhibition at 10 µM,[22],70%
same,inhibition at 10 µM,[23],53%
same,inhibition at 10 µM,[24],51%
same,inhibition at 10 µM,[25],49%
same,inhibition at 10 µM,[26],71%
same,IC50,[27],0.051 ± 0.001 µM
same,inhibition at 10 µM,[28],79%
same,inhibition at 10 µM,[29],43%
same,IC50,[30],0.097 ± 0.005 µM

# Source: paper PMC10408569, “Recruitment of hexahydroquinoline as anticancer scaffold targeting inhibition of wild and mutants EGFR (EGFR^WT, EGFR^T790M, and EGFR^L858R)” (Journal of Enzyme Inhibition and Medicinal Chemistry, 2023)
